Assay results taken from patent publication US11882827B2, “Agricultural mixtures comprising carboxamide compound” (BASF AGROCHEMICAL PRODUCTS B.V., priority 2013, dated 2024).
Read-outs that look alike come from different tables or passages of the source.

How the values were obtained:
Assay type in all cases: cell-based
Settings in all cases: single active, 7 days after inoculation
[1] = tested on: Pyricularia oryzae
[2] = tested on: Rhizoctonia solani; assay: Microtest, activity against Rhizoctonia solani
[3] = tested on: Pyrenophora teres; assay: Microtest, activity against Pyrenophora teres
[4] = tested on: Microdochium nivale; assay: Microtest, activity against Microdochium nivale
[5] = tested on: Septoria tritici; assay: Microtest, activity against leaf blotch on wheat caused by Septoria tritici
[6] = tested on: Leptosphaeria nodorum; assay: Microtest, activity against wheat leaf spots caused by Leptosphaeria nodorum

Fc1ccc([C@]2(Cn3cncn3)O[C@H]2c2ccccc2Cl)cc1 [Epoxiconazol]
Observed efficacy ([1]; 0.063 ppm): 1 | Observed efficacy ([1]; 0.25 ppm): 28 | Observed efficacy ([2]; 0.001 ppm): 0 | Observed efficacy ([2]; 0.004 ppm): 0 | Observed efficacy ([2]; 0.016 ppm): 24 | Observed efficacy ([3]; 0.016 ppm): 0 | Observed efficacy ([4]; 0.004 ppm): 8 | Observed efficacy ([4]; 0.016 ppm): 29 | Observed efficacy ([5]; 0.016 ppm): 7

COCC(=O)N(c1c(C)cccc1C)C(C)C(=O)OC (centres unmarked) [Metalaxyl]
Observed efficacy ([5]; 1 ppm): 5 | Observed efficacy ([5]; 4 ppm): 5

COC(=O)N(OC)c1ccccc1COc1ccn(-c2ccc(Cl)cc2)n1 [Pyraclostrobin]
Observed efficacy ([3]; 0.016 ppm): 34 | Observed efficacy ([6]; 0.25 ppm): 72

CC1(C)CCC(=Cc2ccc(Cl)cc2)C1(O)Cn1cncn1 (centres unmarked) [Triticonazol]
Observed efficacy ([5]; 0.063 ppm): 5

CN(C(=O)c1ccccc1)c1cccc(C(=O)Nc2c(Br)cc(C(F)(C(F)(F)F)C(F)(F)F)cc2C(F)(F)F)c1F [carboxamide compound of formula I]
Observed efficacy ([3]; 63 ppm): 20 | Observed efficacy ([6]; 4 ppm): 1 | Observed efficacy ([5]; 63 ppm): 11
